Source: patent US11535610B2, “Acid addition salts of benzimidazole derivative” (HK INNO.N CORPORATION, priority 2016, dated 2022)
Where two headings read alike, the source gives them in different places.

What was measured:
[1] = Water solubility at room temperature of 1:1 co-crystals of the compound of the formula 1 with co-crystal formers; settings: co-crystal at 1:1 molar ratio with compound of the formula 1
[2] = Comparative test on liquid-phase stability (HPLC, degradation product of formula 4); type: physicochemical; settings: for Concentration (%) of degradation product (compound of the formula 4), Initial / Concentration (%) of degradation product (compound of the formula 4), 1 day (24 hours) elapsed: 20 mg/ml
[3] = Comparative test on precipitation stability in pH 6.8 buffer; type: physicochemical; settings: 10 mg/ml in buffer solution of pH 6.8, stored at 37° C. for 24 hours
[4] = Comparative test on solid-phase stability (Karl Fischer, HPLC); type: physicochemical; settings: for Total impurities (%), 1 month elapsed / Total impurities (%), Initial: HPLC area %; for Total impurities (%), 1 month elapsed / Moisture (%), 1 month elapsed: PE-bag, 75% RH, one month; for Moisture (%), 1 month elapsed / Moisture (%), Initial: Karl Fischer
[5] = Comparative test on solubility of amorphous acid addition salts (supersaturation method); settings: room temperature, solubility of acid addition salt per se, not converted to free base; for solubility: water, thermodynamic from solid, Water solubility

Row | Soil precipitation or not [3] | Concentration of degradation products (%), Initial [4] [%] | Total impurities (%), 1 month elapsed [4] [%] | Total impurities (%), Initial [4] [%] | Moisture (%), 1 month elapsed [4] [%] | Moisture (%), Initial [4] [%] | Molecule | Water-solubility [1] [µg/mL] | further results
1 | – | – | – | – | – | – | CC(C)C[C@H](N)C(=O)O [L-leucine] | 12000 | –
2 | Precipitated | 0.09 | 0.43 | 0.14 | 0.3 | 0.1 | Fumaric acid | – | physical state of the solution (homogenous liquid-phase state or gel) ([2]; 20 mg/ml in purified water, stirred at 40° C.): formed a sticky gel; Soil precipitation or not ([3]; listed as fumaric acid): a solid was precipitated; Concentration of degradation products (%), 1 month elapsed [4]: 0.12%
3 | – | – | – | – | – | – | Cc1nc2c(OC3CCOc4cc(F)cc(F)c43)cc(C(=O)N(C)C)cc2[nH]1 (centres unmarked) [Amorphous free base] | – | solubility [5]: 3000 µg/mL
4 | – | – | – | – | – | – | Cc1ccc(S(=O)(=O)O)cc1 [p-toluenesulfonic acid] | – | Water solubility [5]: 27000 µg/mL
5 | a homogenous solution was maintained | 0.02 | 0.07 | 0.07 | 0.1 | 0.1 | O=C1CC[C@@H](C(=O)O)N1 [L-pyroglutamic acid] | – | Concentration (%) of degradation product (compound of the formula 4), Initial [2]: 0.02%; Concentration (%) of degradation product (compound of the formula 4), 1 day (24 hours) elapsed [2]: 0.05%; Concentration of degradation products (%), 1 month elapsed ([4]; 1 month): 0.02%
6 | – | – | – | – | – | – | C[C@H](N)C(=O)O [L-Alanine] | 4000 | –
7 | – | – | – | – | – | – | O=S(=O)(O)c1cccc2c(S(=O)(=O)O)cccc12 [1.5-naphinalenedisulfonic acid] | – | Water solubility [5]: 2500 µg/mL
8 | a homogenous solution was maintained | 0.04 | 0.06 | 0.06 | 0.1 | 0.1 | Cc1nc2c(O[C@H]3CCOc4cc(F)cc(F)c43)cc(C(=O)N(C)C)cc2[nH]1 | – | solubility [5]: ≥ 50000 µg/mL; Concentration (%) of degradation product (compound of the formula 4), Initial [2]: 0.03%; Concentration (%) of degradation product (compound of the formula 4), 1 day (24 hours) elapsed [2]: 0.07%; Concentration of degradation products (%), 1 month elapsed ([4]; 1 month): 0.04%
9 | – | – | – | – | – | – | CC(C)[C@H](N)C(=O)O [L-Valine] | 3000 | –
10 | – | – | – | – | – | – | NCCCC[C@H](N)C(=O)O [L-Lysine] | 8000 | –
